In patent US10077289B2, “Cyclosporins modified on the MeBmt sidechain by heterocyclic rings” (priority 2015, dated 2018):
Converted amounts (≈) assume the structure as drawn. Where two headings read alike, the source gives them in different places.

Columns and labels:
[1] = target: calcineurin/cyclophilin A (Homo sapiens (Human), UniProt P62937+P63098+Q08209); assay: Calcineurin Phosphatase (CaN) Assay (+CypA); assay type: biochemical; conditions: in the presence of Cyp A, 1:1 complex with inhibitor; read-out: Calcineurin Phosphatase (CaN) Assay (+CypA) IC50
[2] = Water Solubility Assay (measured in pH 7.8 buffer); assay type: physicochemical; conditions: 25 °C, pH 7.8, aqueous buffer, kinetic from dmso stock
[3] = target: Human recombinant cyclophilin A (Cyp A) (Homo sapiens (Human), UniProt P62937); assay: Protease-free PPIase assay
[4] = read-out: Protease-free PPIase Assay Ki, human recombinant Cyp A, 10 °C

| Compound | IC50 [1] [nM] | solubility at 18 h [2] [µM] | Ki [3] [nM] | Ki [3, 4] [nM] |
| --- | --- | --- | --- | --- |
| CC[C@H]1NC(=O)[C@@H]([C@H](O)[C@H](C)CCCc2nccn2C)N(C)C(=O)[C@@H](C(C)C)N(C)C(=O)[C@@H](CC(C)C)N(C)C(=O)[C@@H](CC(C)C)N(C)C(=O)[C@H](C)NC(=O)[C@@H](C)NC(=O)[C@@H](CC(C)C)N(C)C(=O)[C@@H](C(C)C)NC(=O)[C@H](CC(C)C)N(C)C(=O)[C@@H](C)N(C)C1=O [Compound 26, [(2S,3R,4R)-3-Hydroxy-7-(1-methyl-1H-imidazol-2-yl)-4-methyl-2-(methylamino)heptanoic acid]^1 [(R)-methyl-Sar]^3 cyclosporin A] | > 10000 | > 100 | 12.2 | – |
| CC[C@H]1NC(=O)[C@@H]([C@H](O)[C@H](C)CCCCc2ccccn2)N(C)C(=O)[C@@H](C(C)C)N(C)C(=O)[C@@H](CC(C)C)N(C)C(=O)[C@@H](CC(C)C)N(C)C(=O)[C@H](C)NC(=O)[C@@H](C)NC(=O)[C@@H](CC(C)C)N(C)C(=O)[C@@H](C(C)C)NC(=O)[C@H](CC(C)C)N(C)C(=O)[C@@H](C)N(C)C1=O [Compound 28, [(2S,3R,4R)-3-Hydroxy-4-methyl-2-(methylamino)-8-(pyridin-2-yl)-octanoic acid]^1 [(R)-methyl-Sar]^3 cyclosporin A] | > 10000 | 50 to 75 (≈ 64.8 to 97.2 µg/mL) | 3.9 | – |
| CC[C@H]1NC(=O)[C@@H]([C@H](O)[C@H](C)CCCc2ccccn2)N(C)C(=O)[C@@H](C(C)C)N(C)C(=O)[C@@H](CC(C)C)N(C)C(=O)[C@@H](CC(C)C)N(C)C(=O)[C@H](C)NC(=O)[C@@H](C)NC(=O)[C@@H](CC(C)C)N(C)C(=O)[C@@H](C(C)C)NC(=O)[C@H](CC(C)C)N(C)C(=O)CN(C)C1=O [Compound 29, [(2S,3R,4R)-3-Hydroxy-4-methyl-2-(methylamino)-7-(pyridine-2-yl)-heptanoic acid]^1 cyclosporin A] | 2650 | 50 to 75 (≈ 63.4 to 95.1 µg/mL) | – | 11 |
| CC[C@H]1NC(=O)[C@@H]([C@H](O)[C@H](C)CCCc2cccnc2)N(C)C(=O)[C@@H](C(C)C)N(C)C(=O)[C@@H](CC(C)C)N(C)C(=O)[C@@H](CC(C)C)N(C)C(=O)[C@H](C)NC(=O)[C@@H](C)NC(=O)[C@@H](CC(C)C)N(C)C(=O)[C@@H](C(C)C)NC(=O)[C@H](CC(C)C)N(C)C(=O)CN(C)C1=O [Compound 31, [(2S,3R,4R)-3-Hydroxy-4-methyl-2-(methylamino)-7-(pyridin-3-yl)-heptanoic acid]^1 cyclosporin A] | 3950 | 50 to 75 (≈ 63.4 to 95.1 µg/mL) | 9.5 | – |
| CC[C@H]1NC(=O)[C@@H]([C@H](O)[C@H](C)CCCc2ncccn2)N(C)C(=O)[C@@H](C(C)C)N(C)C(=O)[C@@H](CC(C)C)N(C)C(=O)[C@@H](CC(C)C)N(C)C(=O)[C@H](C)NC(=O)[C@@H](C)NC(=O)[C@@H](CC(C)C)N(C)C(=O)[C@@H](C(C)C)NC(=O)[C@H](CC(C)C)N(C)C(=O)CN(C)C1=O [Compound 32, [(2S,3R,4R)-3-Hydroxy-4-methyl-2-(methylamino)-7-(pyrimidin-2-yl)-heptanoic acid]^1 cyclosporin A] | 3450 | 75 to 100 (≈ 95.2 to 127 µg/mL) | – | 8.3 |
| CC[C@H]1NC(=O)[C@@H]([C@H](O)[C@H](C)CCOc2ncccn2)N(C)C(=O)[C@@H](C(C)C)N(C)C(=O)[C@@H](CC(C)C)N(C)C(=O)[C@@H](CC(C)C)N(C)C(=O)[C@H](C)NC(=O)[C@@H](C)NC(=O)[C@@H](CC(C)C)N(C)C(=O)[C@@H](C(C)C)NC(=O)[C@H](CC(C)C)N(C)C(=O)[C@@H](C)N(C)C1=O [Compound 36, [(2S,3R,4R)-3-Hydroxy-4-methyl-2-(methylamino)-6-(pyrimidin-2-yloxy)-hexanoic acid]^1 cyclosporin A] | 1260 | > 100 | 7.7 | – |

Continued, values first:

| IC50 [1] [nM] | solubility at 18 h [2] [µM] | Ki [3] [nM] | Ki [3, 4] [nM] | Compound |
| --- | --- | --- | --- | --- |
| 1110 | > 100 | 6.8 | – | CC[C@H]1NC(=O)[C@@H]([C@H](O)[C@H](C)CCCc2cnn(C)c2)N(C)C(=O)[C@@H](C(C)C)N(C)C(=O)[C@@H](CC(C)C)N(C)C(=O)[C@@H](CC(C)C)N(C)C(=O)[C@H](C)NC(=O)[C@@H](C)NC(=O)[C@@H](CC(C)C)N(C)C(=O)[C@@H](C(C)C)NC(=O)[C@H](CC(C)C)N(C)C(=O)[C@@H](C)N(C)C1=O [Compound 27, [(2S,3R,4R)-3-Hydroxy-4-methyl-2-(methylamino)-7-(1-methylpyrazol-4-yl)-heptanoic acid]^1 [(R)-methyl-Sar]^3 cyclosporin A] |
| 3150 | 50 to 75 (≈ 63.4 to 95.1 µg/mL) | 14 | – | CC[C@H]1NC(=O)[C@@H]([C@H](O)[C@H](C)CCCc2ccncc2)N(C)C(=O)[C@@H](C(C)C)N(C)C(=O)[C@@H](CC(C)C)N(C)C(=O)[C@@H](CC(C)C)N(C)C(=O)[C@H](C)NC(=O)[C@@H](C)NC(=O)[C@@H](CC(C)C)N(C)C(=O)[C@@H](C(C)C)NC(=O)[C@H](CC(C)C)N(C)C(=O)CN(C)C1=O [Compound 30, [(2S,3R,4R)-3-Hydroxy-4-methyl-2-(methylamino)-7-(pyridin-4-yl)-heptanoic acid]^1 cyclosporin A] |
| 2390 | 75 to 100 (≈ 98.4 to 131 µg/mL) | 3.1 | – | CC[C@H]1NC(=O)[C@@H]([C@H](O)[C@H](C)CCCc2ccncc2)N(C)C(=O)[C@@H](C(C)C)N(C)C(=O)[C@@H](CC(C)C)N(C)C(=O)[C@@H](CC(C)C)N(C)C(=O)[C@H](C)NC(=O)[C@@H](C)NC(=O)[C@@H](CC(C)C)N(C)C(=O)[C@@H](C(C)C)NC(=O)[C@H](CC(C)C)N(C)C(=O)[C@@H](COC)N(C)C1=O [Compound 33] |
| 4650 | > 100 | 3.1 | – | CC[C@H]1NC(=O)[C@@H]([C@H](O)[C@H](C)CCCc2ccccn2)N(C)C(=O)[C@@H](C(C)C)N(C)C(=O)[C@@H](CC(C)C)N(C)C(=O)[C@@H](CC(C)C)N(C)C(=O)[C@H](C)NC(=O)[C@@H](C)NC(=O)[C@@H](CC(C)C)N(C)C(=O)[C@@H](C(C)C)NC(=O)[C@H](CC(C)C)N(C)C(=O)[C@@H](CO)N(C)C1=O [Compound 34] |
| 1600 | 75 to 100 (≈ 98.5 to 131 µg/mL) | – | 4.4 | CC[C@H]1NC(=O)[C@@H]([C@H](O)[C@H](C)CCCc2ccccn2)N(C)C(=O)[C@@H](C(C)C)N(C)C(=O)[C@@H](CC(C)C)N(C)C(=O)[C@@H](CC(C)C)N(C)C(=O)[C@H](C)NC(=O)[C@@H](C)NC(=O)[C@@H](CC(C)C)N(C)C(=O)[C@@H](C(C)C)NC(=O)[C@H](CC(C)C)N(C)C(=O)[C@@H](SC)N(C)C1=O [Compound 35] |
| 5640 | > 100 | 5.6 | – | CC[C@H]1NC(=O)[C@@H]([C@H](O)[C@H](C)CCOCc2ccncc2)N(C)C(=O)[C@@H](C(C)C)N(C)C(=O)[C@@H](CC(C)C)N(C)C(=O)[C@@H](CC(C)C)N(C)C(=O)[C@H](C)NC(=O)[C@@H](C)NC(=O)[C@@H](CC(C)C)N(C)C(=O)[C@@H](C(C)C)NC(=O)[C@H](CC(C)C)N(C)C(=O)[C@@H](C)N(C)C1=O [Compound 37, [(2S,3R,4R)-3-Hydroxy-4-methyl-2-(methylamino)-6-(pyridin-4-ylmethoxy)-hexanoic acid]^1 cyclosporin A] |
